The assay concerns the target recombinant human SYK360-635 (Homo sapiens (Human), UniProt P43405). As to the kind of experiment: SYK kinase assay (33P ATP filtration, IC50 of SYK inhibition). The assay is classed as biochemical. The conditions noted are these: truncated SYK aa 360-635 0.5 nM, ATP 20 μM, peptide 5 μM, 30° C. 15 min; read-out: ENZYME_FILTRATION_IC50. On the procedure: Determination of IC50 of Spleen Tyrosine Kinase (SYK) Inhibition:
SYK kinase assay is a standard kinase assay adapted to a 96 well plate format. This assay is performed in 96-well format for IC50 determination with […] which represented 10 half log dilutions and a 40 μL reaction volume. The assay measures the incorporation of radiolabeled ^33P γATP into an N-terminally biotinylated peptide substrate, derived from naturally occurring phosphoacceptor consensus sequence (Biotin-11aa DY*E). Phosphorylated products were detected upon termination of reactions with EDTA and the addition of Streptavidin coated beads.
Assay plates: 96-well MultiScreen 0.65 um filter plates (Millipore Cat. No.: MADVNOB10)
final concentration: 50 mM HEPES pH7.5
BSA: Bovine Serum Albumin Fraction V, fatty acid free (Roche Diagnostics GmbH, Cat. No. 9100221) diluted to a final concentration of 0.1%
Assay Dilution Buffer (ADB): 50 mM HEPES, 0.1 mM EGTA, 0.1 mM Na Vanadate, 0.1 mM β-glycerophosphate, 10 mM MgCl2, 1 mM DTT, 0.1% BSA, pH 7.5
Bead wash buffer: 10 g/L PBS (Phosphate buffered saline) with 2M NaCl+1% phosphoric acid.
DMSO and the mixture was incubated for 10 min at RT.
The kinase reaction was initiated by the addition of 10 μL 4× substrate cocktail containing the DYE peptide substrate [0 or 5 μM], ATP [20 μM] and ^33PγATP [2 μCi/r×n]. After incubation at 30° C. for 15 min, the reaction was terminated by the transfer of 25 μL of the reaction sample to a 96 well 0.65 μm Millipore MADVNOB membrane/plate containing 200 μL 5 mM EDTA and 20% Streptavidine coated beads in PBS.
After the last wash membrane/plates were transferred to an adaptor plate, heat dried for 15 min at 60° C., and 50 μL scintillation cocktail was added to each well and 4 h later the amount of radioactivity was counted in a top counter.

Counter-ions that a name gives are not always drawn. Some results are limits rather than exact numbers.

With `COCC1CCCN1c1cccc(Nc2cc(-c3cccc(C(=O)O)c3)nn3ccnc23)n1` (centres unmarked) [Example I-36, 3-{8-[6-(2-Methoxymethyl-pyrrolidin-1-yl)-pyridin-2-ylamino]-imidazo[1,2-b]pyridazin-6-yl}-benzoic acid], the IC50 was 345 nM.

For the compound `CC1CCCN1c1cccc(Nc2cc(-c3cccc(C(=O)Nc4ccc(C(=O)O)cc4)c3)nn3ccnc23)n1` (centres unmarked) [Example I-10, 4-(3-{8-[6-(2-Methyl-pyrrolidin-1-yl)-pyridin-2-ylamino]-imidazo[1,2-b]pyridazin-6-yl}-benzoylamino)-benzoic acid], the IC50 came out at 1.65 nM.

As to `COc1cc(NC(=O)c2cccc(-c3cc(Nc4ccc(OC)c(OC)n4)c4nccn4n3)c2)ccc1C(=O)O` [Example I-57, 4-{3-[8-(5,6-Dimethoxy-pyridin-2-ylamino)-imidazo[1,2-b]pyridazin-6-yl]-benzoylamino}-2-methoxy-benzoic acid], the IC50 came to 1.55 nM.

On to `Cc1ccccc1-c1cc(Nc2cccc(N3CCCC3C)n2)c2nccn2n1` (centres unmarked) [Example I-47, [6-(2-Methyl-pyrrolidin-1-yl)-pyridin-2-yl]-(6-o-tolyl-imidazo[1,2-b]pyridazin-8-yl)-amine], for which the IC50 was 159 nM.

Regarding `CC1CCN(c2cccc(Nc3cc(-c4ccccc4)nn4ccnc34)n2)C1` (centres unmarked) [Example I-25, [6-(3-Methyl-pyrrolidin-1-yl)-pyridin-2-yl]-(6-phenyl-imidazo[1,2-b]pyridazin-8-yl)-amine], the IC50 was found to be 88.5 nM.

For `CC1CCCN1c1cccc(Nc2cc(-c3cccc(CN4CCCC4)c3)nn3ccnc23)n1` (centres unmarked) [Example I-70, [6-(2-Methyl-pyrrolidin-1-yl)-pyridin-2-yl]-[6-(3-pyrrolidin-1-ylmethyl-phenyl)-imidazo[1,2-b]pyridazin-8-yl]-amine], the IC50 came out at 60.8 nM.

Regarding `COc1ccc(Nc2cc(N3CCCC(NC(=O)c4ccc(C(=O)O)cc4)C3)nn3ccnc23)nc1OC` (centres unmarked) [Example I-72, N-{1-[8-(5,6-Dimethoxy-pyridin-2-ylamino)-imidazo[1,2-b]pyridazin-6-yl]-piperidin-3-yl}-terephthalamic acid], the IC50 turned out to be 2.2 nM.

Regarding `COC(=O)c1ccc(-c2cc(Nc3cccc(N4CCCC4C)n3)c3nccn3n2)cc1` (centres unmarked) [Example I-14, 4-{8-[6-(2-Methyl-pyrrolidin-1-yl)-pyridin-2-ylamino]-imidazo[1,2-b]pyridazin-6-yl}-benzoic acid methyl ester], the IC50 is 369 nM.

Regarding `C[C@H]1CCCN1c1cccc(Nc2cc(-c3cccc(Cl)c3)nn3ccnc23)n1` [Example I-71, [6-(3-Chloro-phenyl)-imidazo[1,2-b]pyridazin-8-yl]-[6-((S)-2-methyl-pyrrolidin-1-yl)-pyridin-2-yl]-amine hydrochloride], the IC50 amounted to 246 nM.

`OCC1CCCN1c1cccc(Nc2cc(-c3ccccc3)nn3ccnc23)n1` (centres unmarked) [Example I-31, {1-[6-(6-Phenyl-imidazo[1,2-b]pyridazin-8-ylamino)-pyridin-2-yl]-pyrrolidin-2-yl}-methanol hydrochloride]: the IC50 was found to be 270 nM.

For the compound `CC1CCCN1c1cccc(Nc2cc(-c3ccccc3C(F)(F)F)nn3ccnc23)n1` (centres unmarked) [Example I-48, [6-(2-Methyl-pyrrolidin-1-yl)-pyridin-2-yl]-[6-(2-trifluoromethyl-phenyl)-imidazo[1,2-b]pyridazin-8-yl]-amine hydrochloride], the IC50 stood at 410 nM.

With `CC(CO)NC(=O)c1cccc(-c2cc(Nc3cccc(N4CCCC4C)n3)c3nccn3n2)c1` (centres unmarked) [Example I-41, N-(2-Hydroxy-1-methyl-ethyl)-3-{8-[6-(2-methyl-pyrrolidin-1-yl)-pyridin-2-ylamino]-imidazo[1,2-b]pyridazin-6-yl}-benzamide], the IC50 came to 130 nM.

For `O=C(O)c1cccc(-c2cc(Nc3cccc(N4CCCC4)n3)c3nccn3n2)c1` [Example I-22, 3-[8-(6-Pyrrolidin-1-yl-pyridin-2-ylamino)-imidazo[1,2-b]pyridazin-6-yl]-benzoic acid hydrochloride], the IC50 was 434 nM.

Consider `COc1ccc(Nc2cc(-c3ccccc3)nn3ccnc23)nc1OC` [Example I-44, (5,6-Dimethoxy-pyridin-2-yl)-(6-phenyl-imidazo[1,2-b]pyridazin-8-yl)-amine], for which the IC50 was 47.6 nM.

In the case of `CC1(C)CCN(c2cccc(Nc3cc(-c4ccccc4)nn4ccnc34)n2)C1` [Example I-34, [6-(3,3-Dimethyl-pyrrolidin-1-yl)-pyridin-2-yl]-(6-phenyl-imidazo[1,2-b]pyridazin-8-yl)-amine], the IC50 was determined as 1050 nM.

`CC1CCCN1c1cccc(Nc2cc(-c3ccncc3)nn3ccnc23)n1` (centres unmarked) [Example I-81, [6-(2-Methyl-pyrrolidin-1-yl)-pyridin-2-yl]-(6-pyridin-4-yl-imidazo[1,2-b]pyridazin-8-yl)-amine]: the IC50 turned out to be 188 nM.

Take `CCC1CCCN1c1cccc(Nc2cc(-c3ccccc3)nn3ccnc23)n1` (centres unmarked) [Example I-30, [6-(2-Ethyl-pyrrolidin-1-yl)-pyridin-2-yl]-(6-phenyl-imidazo[1,2-b]pyridazin-8-yl)-amine hydrochloride]: the IC50 was 1960 nM.

As for `CC1CCCN1c1cccc(Nc2cc(-c3cccc(OCCN4CCOCC4)c3)nn3ccnc23)n1` (centres unmarked) [Example I-88, [6-(2-Methyl-pyrrolidin-1-yl)-pyridin-2-yl]-{6-[3-(2-morpholin-4-yl-ethoxy)-phenyl]-imidazo[1,2-b]pyridazin-8-yl}-amine], the IC50 was determined as 51 nM.

For the compound `COc1cccc(-c2cc(Nc3cccc(N4CCCC4C)n3)c3nccn3n2)c1` (centres unmarked) [Example I-39, [6-(3-Methoxy-phenyl)-imidazo[1,2-b]pyridazin-8-yl]-[6-(2-methyl-pyrrolidin-1-yl)-pyridin-2-yl]-amine], the IC50 came to 292 nM.

On to `CC1CCCN1c1cccc(Nc2cc(-c3ccc4c(c3)OCO4)nn3ccnc23)n1` (centres unmarked) [Example I-18, (6-Benzo[1,3]dioxol-5-yl-imidazo[1,2-b]pyridazin-8-yl)-[6-(2-methyl-pyrrolidin-1-yl)-pyridin-2-yl]-amine], for which the IC50 was determined as 115 nM.

For the compound `CCc1ccc(Nc2cc(-c3ccccc3)nn3ccnc23)nc1` [Example I-2, (5-Ethyl-pyridin-2-yl)-(6-phenyl-imidazo[1,2-b]pyridazin-8-yl)-amine], the IC50 worked out at 186 nM.

As to `CC1CCCN1c1cccc(Nc2cc(-c3cccc(C(=O)NCCO)c3)nn3ccnc23)n1` (centres unmarked) [Example I-40, N-(2-Hydroxy-ethyl)-3-{8-[6-(2-methyl-pyrrolidin-1-yl)-pyridin-2-ylamino]-imidazo[1,2-b]pyridazin-6-yl}-benzamide], the IC50 was 42.5 nM.

Regarding `COc1ccc(Nc2cc(N3CCC(NC(=O)c4ccc(C(=O)O)cc4)C3)nn3ccnc23)nc1OC` (centres unmarked) [Example I-76, N-{1-[8-(5,6-Dimethoxy-pyridin-2-ylamino)-imidazo[1,2-b]pyridazin-6-yl]-pyrrolidin-3-yl}-terephthalamic acid], the IC50 turned out to be 42.1 nM.

For the compound `FC(F)(F)c1cccc(Nc2cc(-c3ccccc3)nn3ccnc23)n1` [Example I-1, (6-Phenyl-imidazo[1,2-b]pyridazin-8-yl)-(6-trifluoromethyl-pyridin-2-yl)-amine], the IC50 is > 10000 nM.

Take `Cc1c(C(=O)O)cccc1-c1cc(Nc2cccc(N3CCC[C@@H]3C)n2)c2nccn2n1` [Example I-24, 2-Methyl-3-{8-[6-((S)-2-methyl-pyrrolidin-1-yl)-pyridin-2-ylamino]-imidazo[1,2-b]pyridazin-6-yl}-benzoic acid]: the IC50 came to 194 nM.

Take `COc1ccc(Nc2cc(N3CCC(C(=O)Nc4ccc(C(=O)O)cc4)C3)nn3ccnc23)nc1OC` (centres unmarked) [Example I-75, 4-({1-[8-(5,6-Dimethoxy-pyridin-2-ylamino)-imidazo[1,2-b]pyridazin-6-yl]-pyrrolidine-3-carbonyl}-amino)-benzoic acid]: the IC50 came out at 461 nM.

On to `COc1ccc(Nc2cc(N3CCCC(C(=O)Nc4ccc(C(=O)O)cc4)C3)nn3ccnc23)nc1OC` (centres unmarked) [Example I-74, 4-({1-[8-(5,6-Dimethoxy-pyridin-2-ylamino)-imidazo[1,2-b]pyridazin-6-yl]-piperidine-3-carbonyl}-amino)-benzoic acid], for which the IC50 turned out to be 14.9 nM.

As to `CC1CC(C)CN(c2cccc(Nc3cc(-c4cccc(C(=O)O)c4)nn4ccnc34)n2)C1` (centres unmarked) [Example I-38, 3-[8-(3,5-Dimethyl-3,4,5,6-tetrahydro-2H-[1,2′]bipyridinyl-6′-ylamino)-imidazo[1,2-b]pyridazin-6-yl]-benzoic acid], the IC50 stood at 904 nM.

Consider `CC1CCCN1c1cccc(Nc2cc(-c3ccc(C(C)(C)C)cc3)nn3ccnc23)n1` (centres unmarked) [Example I-85, [6-(4-tert-Butyl-phenyl)-imidazo[1,2-b]pyridazin-8-yl]-[6-(2-methyl-pyrrolidin-1-yl)-pyridin-2-yl]-amine], for which the IC50 came out at 610 nM.
